Where “and” joins values, the source holds several entries; their conditions need not be identical. Identical values can stand only once.
Target: T1, NLuc-PRMT5 co-expressed with WDR77 in HCT116 MTAP wild-type cells (Homo sapiens, UniProt O14744)
T1 construct: Horizon Discovery (cells) #PAR-034 and #R02-033 (cells); host or cells: HCT116 MTAP wild-type / MTAP-/-
Test: Live-cell NanoBRET target engagement in HCT116 MTAP wild-type cells (NLuc-PRMT5 + WDR77)
Type: cell-based
Conditions: for BRET, CBH-002 + DMSO: Fig 5A, Log([CBH-002]); for normalized BRET, CBH-002 + DMSO (Figure S6C) / normalized BRET, CBH-002 + GSK3326595 (Figure S6C): log([CBH-002])
Protocol: HEK293 cells (ATCC) were cultured in DMEM (Thermo Fisher) + 10% (v/v) FBS (Seredigm), and HCT116 cells (Horizon Discovery, #PAR-034 and #R02-033) were cultured in McCoy’s 5A (Thermo Fisher) + 10% FBS, with incubation in a humidified, 37 °C/5% CO2 incubator. Cells were split 1–3 days prior to performing experiments and used at roughly 80% confluency. […] Cells were transfected according to the manufacturer’s protocol using FuGENE HD (Promega). NanoLuc fusion DNA was diluted into Transfection Carrier DNA (Promega) in Opti-MEM at a ratio of 1:9 (mass/mass), and FuGENE HD was added at a ratio of 1:3 (μg DNA:μL lipid). […] Formed complexes were combined with cells resuspended to a density of 2 × 10^5 cells/mL in Opti-MEM + 1% FBS at a ratio of 1:20 (vol:vol). […] Cells were seeded at a density of 2 × 10^5 cells/mL in Opti-MEM + 1% FBS in 100 μL (96-well). The BRET probe CBH-002 was prepared first as a 100× stock in 100% DMSO (Sigma) and then diluted to a 20× stock in NanoBRET Tracer Dilution buffer (Promega). Test compounds were prepared as 1000× stocks in 100% DMSO and diluted to 10× stocks in Opti-MEM to prepare working stocks. […] NanoBRET Complete 3x Substrate was prepared by combining Nano-Glo Substrate and Extracellular NanoLuc Inhibitor in Opti-MEM, according to the manufacturer’s protocol (Promega).
EC50 values were obtained by fitting the BRET probe and compound affinity curves to a sigmoidal four-parameter fit model in Graphpad Prism:1 Y=Ymin+Ymax−Ymin/1+10^LogEC50−Xh where h is the Hill Slope.
When normalized BRET was used, mBRET values were normalized using2 NormalizedBRET%=(Y−BRETmin)/BRETmax−BRETmin where y = mBRET in the presence of test compound and BRET probe, BRETmin = mBRET at the highest concentration (saturating) of test compound and BRET probe, and BRETmax = mBRET in the presence of vehicle (DMSO) and BRET probe.
Normalized concentration-response curves showing full competition were fit using a 2-parameter model:3 Y=100/1+10^LogEC50−Xh
In situations where only partial competition was observed, the normalized concentration-response curves were fit using Eq. 1 and where Ymin was constrained to >0.

T1 sequence (O14744 whole entry): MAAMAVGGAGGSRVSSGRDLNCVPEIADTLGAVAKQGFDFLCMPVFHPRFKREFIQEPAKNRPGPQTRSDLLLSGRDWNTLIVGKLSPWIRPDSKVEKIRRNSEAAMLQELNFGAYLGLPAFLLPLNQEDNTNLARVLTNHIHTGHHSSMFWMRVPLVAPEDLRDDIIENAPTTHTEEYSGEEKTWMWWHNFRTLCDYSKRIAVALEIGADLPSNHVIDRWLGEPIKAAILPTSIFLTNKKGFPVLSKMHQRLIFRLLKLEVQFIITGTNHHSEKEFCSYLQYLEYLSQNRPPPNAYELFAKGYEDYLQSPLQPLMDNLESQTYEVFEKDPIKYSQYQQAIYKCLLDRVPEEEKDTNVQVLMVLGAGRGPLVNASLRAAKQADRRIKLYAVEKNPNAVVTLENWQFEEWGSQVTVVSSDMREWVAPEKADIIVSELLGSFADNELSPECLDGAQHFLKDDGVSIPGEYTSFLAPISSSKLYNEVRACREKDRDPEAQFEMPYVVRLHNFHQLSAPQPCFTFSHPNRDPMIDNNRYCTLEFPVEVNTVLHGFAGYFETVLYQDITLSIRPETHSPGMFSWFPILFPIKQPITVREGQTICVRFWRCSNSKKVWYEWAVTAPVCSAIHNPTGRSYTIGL
T1 sequence (Q9BQA1 whole entry partner): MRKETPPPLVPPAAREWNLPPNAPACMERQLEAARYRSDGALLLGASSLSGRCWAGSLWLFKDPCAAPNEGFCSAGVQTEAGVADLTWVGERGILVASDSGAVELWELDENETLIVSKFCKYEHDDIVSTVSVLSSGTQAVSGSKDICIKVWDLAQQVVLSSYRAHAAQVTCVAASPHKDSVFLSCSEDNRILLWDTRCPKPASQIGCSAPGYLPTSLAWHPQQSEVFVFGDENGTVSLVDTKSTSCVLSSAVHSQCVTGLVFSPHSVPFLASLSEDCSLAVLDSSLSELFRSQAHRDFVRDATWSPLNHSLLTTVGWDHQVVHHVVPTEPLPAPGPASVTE

BRET, CBH-002 + DMSO (uM -0.60): 403 and 799.01 and 758.47 | BRET, CBH-002 + DMSO (uM -0.90): 393 and 766.11 and 738.99 | BRET, CBH-002 + DMSO (uM -1.20): 378 and 710.21 and 697.93 | BRET, CBH-002 + DMSO (uM -1.51): 362 and 618.54 and 616.68 | BRET, CBH-002 + DMSO (uM -1.81): 323 | BRET, CBH-002 + DMSO (uM -2.71): 68.8 and 69.23 and 65.71 | EC50 (HCT116 wild-type cells, WDR77 co-expression, read-out: CBH-002 apparent affinity (EC50)): 12 nM | normalized BRET, CBH-002 + DMSO (Figure S6C) (uM = -0.60): 100 | normalized BRET, CBH-002 + GSK3326595 (Figure S6C) (uM = -0.60): 12.6717 and 16.8431 and 16.7636 | normalized BRET, CBH-002 + DMSO (Figure S6C) (uM = -0.90): 97.4927 and 95.8339 and 97.4011 | normalized BRET, CBH-002 + GSK3326595 (Figure S6C) (uM = -0.90): 9.237 and 13.3988 and 13.2855 | normalized BRET, CBH-002 + DMSO (Figure S6C) (uM = -1.20): 93.7318 and 88.7552 and 91.9231 | normalized BRET, CBH-002 + GSK3326595 (Figure S6C) (uM = -1.20): 5.8269 and 8.083 and 8.045 | normalized BRET, CBH-002 + DMSO (Figure S6C) (uM = -1.51): 89.7202 and 77.147 and 81.0831 | normalized BRET, CBH-002 + GSK3326595 (Figure S6C) (uM = -1.51): 3.295 and 4.174 and 4.336 | normalized BRET, CBH-002 + DMSO (Figure S6C) (uM = -1.81): 79.9418 and 55.2096 and 56.8522 | normalized BRET, CBH-002 + GSK3326595 (Figure S6C) (uM = -1.81): 1.59 and 1.874 and 2.064 | normalized BRET, CBH-002 + DMSO (Figure S6C) (uM = -2.11): 57.6271 and 32.8998 and 32.0743 | normalized BRET, CBH-002 + GSK3326595 (Figure S6C) (uM = -2.11): 0.7121 and 0.8016 and 0.8965 | normalized BRET, CBH-002 + DMSO (Figure S6C) (uM = -2.41): 31.5515 and 15.8288 and 15.9084 | normalized BRET, CBH-002 + GSK3326595 (Figure S6C) (uM = -2.41): 0.2206 and 0.2381 and 0.3149 | normalized BRET, CBH-002 + GSK3326595 (Figure S6C) (uM = -2.71): 0
SMILES: O=C(CCc1ccc2n1[B-](F)(F)[N+]1=C(c3ccc[nH]3)C=CC1=C2)NCCCCC(=O)N1CCC(Nc2cc(C(=O)NC[C@H](O)CN3CCc4ccccc4C3)ncn2)CC1 [CBH-002]
